# pIC50: −log10 of the molar value.
# Experiments:
# THP-1 ASC-GFP cells = assay: THP-1 ASC-GFP speck assay (NLRP3 inflammasome activation, nigericin); type: cell-based; conditions: THP1-ASC-GFP; PMA-differentiated, LPS primed, 10 μM nigericin
# Experimental: THP-1 ASC-GFP cell line was purchased from Invivogen, San Diego, for infammasome activation assay. THP-1 ASC-GFP cells stably express a 37.6 kDa ASC::GFP fusion protein that enables monitoring of spec formation by microscopy after activation of NLRP3 dependent inflammasome pathway. Cells were maintained at a density of 600,000 cells/mL in growth media consisting of RPMI 1640, 2 mM L-glutamine, 25 mM HEPES and 10% heat inactivated fetal bovine serum at 37° C. and 5% CO2. Cells were passaged every 3-4 days and used for assays for up to 20 passages.
# THP-1 ASC-GFP cells were collected by centrifuging cells at 800 RPM for 5 minutes. Cell culture supernatant was removed and cells were re-suspended in fresh media at density of 1×10^6 cells/mL in assay media consisting of RPMI 1640, 2 mM L-glutamine, 25 mM HEPES and 10% heat inactivated fetal bovine serum. Phorbol 12-myristate 13-acetate (PMA) (Invivogen,tlrl-pma) was added to the cell suspension at a final concentration of 500 ng/ml and mixed thoroughly. 40,000 cells were added per well of a 384 well plate and differentiated into macrophages overnight at 37° C. and 5% CO2. Cells were primed with 1 μg/mL of lipopolysaccharide (Invivogen Ultrapure lipopolysaccharide from E. coli, tlrl-3pelps) in assay media for 3 hours at 37° C. and 5% CO2. After priming, media was removed and THP-1 ASC-GFP cells were preincubated with serially diluted test compounds with starting concentration of 40 μM followed by 2-fold dilution for a 20-point curve or vehicle (DMSO) for 30 min in assay media at 37° C. and 5% CO2. Cells were then stimulated with 10 μM nigericin (Invivogen, tlrl-nig-5) for 90 min at 37° C. and 5% CO2 to activate NLRP3 dependent inflammasome pathway and spec formation. After stimulation, cells were fixed with 4.8% paraformaldehyde (Electron Microscopy Sciences #15710-S) and incubated at room temperature for 15 min. Cells were then washed 3-times with 100 μL of phosphate buffered saline and permeabilized in the presence of premeablization/block buffer for 20 min at room temperature. Cells were then washed 3-times with 100 μL phosphate buffered saline and incubated for 1 hr at room temperature in the presence of hoechst. After staining with Hoechst, cells were washed 3-times with 100 μL phosphate buffered saline and imaged for ASC spec formation.
# THP-1 ASC-GFP cells were imaged in 488 and Hoechst channels. Hoechst channel was used for cell count and 488 channel was used to identify number of GFP ASC specks in imaged fields. Percentage of cells with a spec was calculated by dividing the number of GFP positive spots by total number of cells.
# NLRP3 inflammasome = target: T1, NLRP3 inflammasome (Homo sapiens, UniProt Q96P20); assay: NLRP3 inflammasome activation assay in LPS-primed, nigericin-stimulated PBMCs, IL-1β release; type: cell-based; conditions: LPS 100 ng/mL priming, 10 μM nigericin; read-out: IL-1B pIC50 (converted)
# T1 construct: freshly isolated from human peripheral blood from healthy donors; StemCells Technologies; host or cells: primary human PBMCs
# T1 sequence (Q96P20 whole entry): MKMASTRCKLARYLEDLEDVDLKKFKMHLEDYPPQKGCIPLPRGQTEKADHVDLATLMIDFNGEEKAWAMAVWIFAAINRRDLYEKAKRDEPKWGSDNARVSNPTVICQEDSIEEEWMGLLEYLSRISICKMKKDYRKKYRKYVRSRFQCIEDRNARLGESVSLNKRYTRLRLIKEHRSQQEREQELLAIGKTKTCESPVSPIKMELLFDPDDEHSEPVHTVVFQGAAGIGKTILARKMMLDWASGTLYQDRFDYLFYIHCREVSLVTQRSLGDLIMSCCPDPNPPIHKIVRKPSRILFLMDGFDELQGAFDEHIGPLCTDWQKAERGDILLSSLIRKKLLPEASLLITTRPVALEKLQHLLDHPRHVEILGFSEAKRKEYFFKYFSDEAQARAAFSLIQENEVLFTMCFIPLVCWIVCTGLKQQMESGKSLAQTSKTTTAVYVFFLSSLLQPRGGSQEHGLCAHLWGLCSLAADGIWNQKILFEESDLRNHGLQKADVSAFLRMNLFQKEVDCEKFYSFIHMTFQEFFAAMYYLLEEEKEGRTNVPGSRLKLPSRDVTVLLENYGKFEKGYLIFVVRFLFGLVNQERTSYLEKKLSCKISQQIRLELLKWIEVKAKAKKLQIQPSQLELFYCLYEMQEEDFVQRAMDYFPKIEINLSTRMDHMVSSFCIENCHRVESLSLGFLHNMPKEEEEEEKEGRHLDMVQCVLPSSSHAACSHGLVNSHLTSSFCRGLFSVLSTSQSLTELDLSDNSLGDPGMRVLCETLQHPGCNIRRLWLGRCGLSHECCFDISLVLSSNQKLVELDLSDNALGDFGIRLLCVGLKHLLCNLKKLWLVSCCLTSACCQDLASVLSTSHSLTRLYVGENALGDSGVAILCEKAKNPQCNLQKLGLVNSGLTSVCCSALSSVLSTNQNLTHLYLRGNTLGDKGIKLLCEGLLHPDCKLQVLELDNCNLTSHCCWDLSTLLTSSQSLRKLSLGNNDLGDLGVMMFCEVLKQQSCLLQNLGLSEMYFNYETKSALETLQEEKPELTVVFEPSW
# Experimental: Some of the following assays were used to determine the inhibitory activity of the compounds on the NLRP3 inflammasome using a common inflammasome activation stimuli-nigericin.
# (§1) Human peripheral blood mononuclear cells (PBMCs), consisting of lymphocytes (T, B and NK cells), monocytes and dendritic cells, are freshly isolated from human peripheral blood from healthy donors. Cells are obtained through an IRB approved donor program by iXCells Biotechnologies where all the donors are tested for bacterial and viral infections. Cells are purified from peripheral blood using ficoll gradient centrifugation.
# (§2) Fresh or cryopreserved PMBCs are seeded in V-bottom 96-well plate at 0.5-1×10^5 cells per well and incubated overnight at 37° C. with 5% CO2 in RPMI 1640 medium with GlutaMAX supplement, 4.5 g/L D-glucose, 10% Fetal Bovine Serum (FBS), […] Sodium Pyruvate, 1% Penicillin/Streptomycin, 10 mM HEPES and 0.05 mM of […]. Freshly isolated or cryopreserved KCs cells are seeded in flat-bottom 96-well plates at 0.6-1.5×10^5 cells/well and incubated overnight at 37° C., 5% CO2 in RPMI 1640 Medium with GlutaMAX supplement, FBS, 1% Penicillin/Streptomycin and 10 mM HEPES. The following day, the cells are primed with 100 ng/mL of lipopolysaccharides (LPS; Sigma Aldrich) in FBS-free RPMI 1640 for 3 h. After the priming step, the media is removed and PBMCs are pre-incubated with serial concentrations of test compounds (0.00017-10 uM) or vehicle (DMSO) for 30 min in FBS-free media prior to addition of the NLRP3 activator. Cells are then stimulated with 10 μM Nigericin (Sigma Aldrich; InvivoGen) for 1.5 h. Plates were centrifuged at 1,500 rpm for 3 minutes to pellet cells and supernatant was transferred into new plates for subsequent experiments.
# For ELISA assays cells are seeded into 96-well plates. Post study, supernatants are removed and the levels of mature IL-1β, IL18 and TNFα (Quantikine ELISA, R&D systems) are measured in cell conditioned media by ELISA according to manufacturer's instructions.
# Human frozen PBMCs were purchased from StemCells Technologies. Cells were rapidly thawed in 37° C. water bath and resuspended in fresh assay media consisting of RPMI 1640 Medium containing 1% sodium pyruvate, 10 mM HEPES, 2.5 g/L glucose and 55 μM 2-Mercaptoethanol. Cell density was adjusted to 8.1×10^5 cells/mL. Cells were primed by adding lipopolysaccharide (Invivogen Ultrapure lipopolysaccharide from E. coli, tlrl-3pelps) at a final concentration of 100 ng/mL in cell suspension. 37 μL of cell suspension with LPS was seeded per well of a 384 well plate and incubated for 3 hours at 37° C. and 5% CO2. After priming, PBMCs were preincubated with serially diluted test compounds with starting concentration of 40 μM followed by 2-fold dilution for a 20-point curve or vehicle (DMSO) for 30 min in assay media at 37° C. and 5% CO2. Cells were then stimulated with 10 μM nigericin (Invivogen, tlrl-nig-5) for 90 min at 37° C. and 5% CO2 to activate NLRP3 dependent inflammasome pathway and IL-1β release in cell culture supernatant. Cells were centrifuged at 1200 RPM for 1 min and 40 μL of supernatant was transferred into fresh plates and stored at −80° C. until IL-1β analysis.
# 16 μL of supernatant was added to white 384 well HTRF plates, followed by addition of 4 μL of HTRF cocktail in each well. Plates were quickly centrifuged, sealed and incubated overnight at room temperature. Next day, HTRF signal was read on a Pherastar and ratio of 665/620 was calculated based on manufacturer's protocol to obtain concentration of IL-1β in cell culture supernatant.
# PBMCs = assay: CTG (CellTiter-Glo) viability assay of compound-treated LPS and nigericin stimulated PBMCs; type: cell-based, human; conditions: Homo sapiens, PBMC, LPS and nigericin stimulated cells; read-out: CTG pIC50 (converted)
# Experimental: as §1, §2
# Viability of compound treated cells is measured using CellTiter-Glo® assay (Promega, Madison, Wis.) that measures the ATP content of cells which is proportional to the number of live cells within a well. This is a counter-screen to establish that the reduction of IL-1β levels in LPS and nigericin stimulated and compound treated cells is not due to cytotoxicity, but rather through the inhibition of the inflammasome pathway. Compounds inhibiting NRLP3 inflammasome activation ultimately increase the viability of LPS and nigericin stimulated cells by blocking NLRP3 mediated pyroptosis that would otherwise lead to cell lysis.
Structure (SMILES),pIC50 (THP-1 ASC-GFP cells),IC50 (NLRP3 inflammasome) [nM],IC50 (PBMCs) [nM]
"CC(C)c1nn(CC(F)(F)F)c(C(C)C)c1NC(=O)NS(=O)(=O)c1cnn2c1OCC(C)(C)C2 [Example 75, N-((3,5-diisopropyl-1-(2,2,2-trifluoroethyl)-1H-pyrazol-4-yl)carbamoyl)-6,6-dimethyl-6,7-dihydro-5H-pyrazolo[5,1-b][1,3]oxazine-3-sulfonamide, ammonia]",6.38,,
"CC(C)c1cc(OC(F)(F)F)nc(C(C)C)c1NC(=O)NS(=O)(=O)c1cnn2c1OCCC2 [Example 71, Sodium N-((2,4-diisopropyl-6-(trifluoromethoxy)pyridin-3-yl)carbamoyl)-6,7-dihydro-5H-pyrazolo[5,1-b][1,3]oxazine-3-sulfonamide]",5.72,,
"CC(C)c1cc(C(F)(F)F)nc(C(C)C)c1NC(=O)NS(=O)(=O)c1cnn2c1OCC(C)(C)C2 [Example 82, N-((2,4-diisopropyl-6-(trifluoromethyl)pyridin-3-yl)carbamoyl)-6,6-dimethyl-6,7-dihydro-5H-pyrazolo[5,1-b][1,3]oxazine-3-sulfonamide]",5.85,,
"CC(C)c1nn(CC(F)(F)F)c(C(C)C)c1NC(=O)NS(=O)(=O)c1cnn2c1OCCC2 [Example 58, N-((3,5-diisopropyl-1-(2,2,2-trifluoroethyl)-1H-pyrazol-4-yl)carbamoyl)-6,7-dihydro-5H-pyrazolo[5,1-b][1,3]oxazine-3-sulfonamide, ammonia]",6.70,,
"COc1cc(-c2cc(C(F)(F)F)nc(C(C)C)c2NC(=O)NS(=O)(=O)c2cnn3c2OCCC3)ccn1 [Example 69, Sodium N-((2-isopropyl-2′-methoxy-6-(trifluoromethyl)-[4,4′-bipyridin]-3-yl)carbamoyl)-6,7-dihydro-5H-pyrazolo[5,1-b][1,3]oxazine-3-sulfonamide]",6.28,,
"CC(C)c1nn(CC(F)F)c(C(C)C)c1NC(=O)NS(=O)(=O)c1cnn2c1OCCC2 [Example 63, N-((1-(2,2-difluoroethyl)-3,5-diisopropyl-1H-pyrazol-4-yl)carbamoyl)-6,7-dihydro-5H-pyrazolo[5,1-b][1,3]oxazine-3-sulfonamide, ammonia]",6.46,,
"CC(C)c1nn(C(F)(F)F)c(C(C)C)c1NC(=O)NS(=O)(=O)c1cnn2c1OCCC2 [Example 67, N-((3,5-diisopropyl-1-(trifluoromethyl)-1H-pyrazol-4-yl)carbamoyl)-6,7-dihydro-5H-pyrazolo[5,1-b][1,3]oxazine-3-sulfonamide, ammonia]",6.77,,
CCn1nc(C(C)C)c(NC(=O)NS(=O)(=O)c2cnn3c2OCCC3)c1C(C)C [drawing 401],,1000 to 10000,100 to 1000

# The next lines start with results.
pIC50 (THP-1 ASC-GFP cells),IC50 (NLRP3 inflammasome) [nM],Structure (SMILES),IC50 (PBMCs) [nM]
6.25,,"CC(C)c1cc(C(F)(F)F)nc(C(C)C)c1NC(=O)NS(=O)(=O)c1cnn2c1OC[C@@H](N(C)C)C2 [Example 76a, (S)—N-((2,4-diisopropyl-6-(trifluoromethyl)pyridin-3-yl)carbamoyl)-6-(dimethylamino)-6,7-dihydro-5H-pyrazolo[5,1-b][1,3]oxazine-3-sulfonamide]",
5.60,,"CN[C@@H]1COc2c(S(=O)(=O)NC(=O)Nc3c(C(C)C)nn(CC(F)(F)F)c3C(C)C)cnn2C1 [Example 72a, (S)—N-((3,5-diisopropyl-1-(2,2,2-trifluoroethyl)-1H-pyrazol-4-yl)carbamoyl)-6-(methylamino)-6,7-dihydro-5H-pyrazolo[5,1-b][1,3]oxazine-3-sulfonamide, ammonia]",
5.44,,"CCn1nc(C(C)C)c(NC(=O)NS(=O)(=O)c2cnn3c2OC[C@@H](NC)C3)c1C(C)C [Example 66a, (S)—N-((1-ethyl-3,5-diisopropyl-1H-pyrazol-4-yl)carbamoyl)-6-(methylamino)-6,7-dihydro-5H-pyrazolo[5,1-b][1,3]oxazine-3-sulfonamide, ammonia]",
5.06,,"CN[C@@H]1COc2c(S(=O)(=O)NC(=O)Nc3c(C(C)C)nn(C)c3C(C)C)cnn2C1 [Example 73a, (S)—N-((3,5-diisopropyl-1-methyl-1H-pyrazol-4-yl)carbamoyl)-6-(methylamino)-6,7-dihydro-5H-pyrazolo[5,1-b][1,3]oxazine-3-sulfonamide, ammonia]",

# — patent publication US11560391B2, “Sulfonylurea compounds as inhibitors of interleukin-1 activity” (Genentech, Inc., priority 2018, dated 2023)
